This is an account of results in ChEMBL document CHEMBL1152592, “Design, synthesis and biological evaluations of novel 7-[3-(1-aminocycloalkyl)pyrrolidin-1-yl]-6-desfluoro-8-methoxyquinolones with potent antibacterial activity against multi-drug resistant Gram-positive bacteria” (Bioorg Med Chem, 2009).

The structures appear in SMILES notation. Converted amounts (≈) assume the structure as drawn.

A word on the MIC: it is the lowest concentration that inhibits growth of the organism. A lower MIC goes with inhibition by little substance. A word on the solubility: it is how much of the substance goes into solution per volume. Lower therefore signals little dissolved substance. The MIC50 is the lowest concentration that inhibits either 50% of growth or 50% of the strains tested, depending on the study. Read a low MIC50 as higher susceptibility. A word on the MIC80: it is the lowest concentration that inhibits either 80% of growth or 80% of the strains tested, depending on the study. As a reminder, the MIC90 is an inhibitory concentration at the 90% level, which refers to growth in some studies and to a panel of isolates in others. The low end stands for higher susceptibility, the high end for lower susceptibility. A word on the IC50: it is the concentration at which inhibition is half-maximal. A high value points to weaker potency.

The test system of series [1] is Streptococcus pneumoniae. The series is described as follows: Antibacterial activity against Streptococcus pneumoniae J-24 after 18 hrs by twofold microbroth dilution method. The conditions noted are these: J-24, 18 h. The series is classed as functional.
Series [2] relates to Staphylococcus epidermidis. The series is described as follows: Antibacterial activity against Staphylococcus epidermidis 56500 after 18 hrs by twofold microbroth dilution method. In kind it is functional. The conditions noted are these: Staphylococcus epidermidis, 56500, 18 h. Background: Broth dilution looks for growth in wells or tubes with falling amounts of substance.
Series [3] relates to Pseudomonas aeruginosa. The series is described as follows: Antibacterial activity against Pseudomonas aeruginosa PAO1 after 18 hrs by twofold microbroth dilution method. In kind it is functional. The conditions noted are these: PAO1, 18 h.
Series [4] deals with Klebsiella pneumoniae. The series is described as follows: Antibacterial activity against Klebsiella pneumoniae type 2 after 18 hrs by twofold microbroth dilution method. In kind it is functional. As to conditions: type 2, 18 h.
In series [5] the test system is Mus musculus. The series is described as follows: Toxicity in Slc:ddY mouse at 150 mg/kg, iv. In kind it is organism-based. On the set-up: dose 150 mg/kg, route intravenous. As to conditions: in vivo.
In series [6] the test system is Enterococcus faecalis. The series is described as follows: Antibacterial activity against Enterococcus faecalis ATCC 19433 after 18 hrs by twofold microbroth dilution method. In kind it is functional. The conditions noted are these: ATCC19433, 18 h.
For series [7], the system named is Mus musculus. The series is described as follows: Toxicity in Slc:ddY mouse assessed as micronucleated reticulocyte in blood at 50 mg/kg, iv after 48 hrs of treatment by fluorescence microscopy. The series is classed as organism-based. On the set-up: dose 50 mg/kg, route intravenous. As to conditions: in vivo.
The test system of series [8] is Staphylococcus aureus. The series is described as follows: Antibacterial activity against Staphylococcus aureus FDA 209-P after 18 hrs by twofold microbroth dilution method. In kind it is functional.
In series [9] the test system is Streptococcus pyogenes. The series is described as follows: Antibacterial activity against Streptococcus pyogenes G-36 after 18 hrs by twofold microbroth dilution method. In kind it is functional. The conditions noted are these: G-36, 18 h.
Series [10] relates to Escherichia coli. The series is described as follows: Antibacterial activity against Escherichia coli NIHJ after 18 hrs by twofold microbroth dilution method. The series is classed as functional.
Series [11] is described as follows: Aqueous […] of the compound. In kind it is physicochemical. As to conditions: aqueous (not further specified).
In series [12] the test system is Staphylococcus aureus. The series is described as follows: Antibacterial activity against levofloxacin, methicillin-resistant Staphylococcus aureus after 18 hrs by twofold microbroth dilution method. The series is classed as functional.
In series [13] the test system is Mus musculus. The series is described as follows: Toxicity in Slc:ddY mouse at 100 mg/kg, iv. As to conditions: in vivo. The arrangement: dose 100 mg/kg, route intravenous. In kind it is organism-based.
Series [14] has as its system Mus musculus. The series is described as follows: Toxicity in Slc:ddY mouse at 50 mg/kg, iv. The series is classed as organism-based. On the set-up: dose 50 mg/kg, route intravenous. As to conditions: in vivo.
In series [15] the test system is Streptococcus mitis. The series is described as follows: Antibacterial activity against Streptococcus mitis IID685 after 18 hrs by twofold microbroth dilution method. The series is classed as functional. As to conditions: IID685, 18 h.
The target in series [16] is DNA gyrase (Staphylococcus aureus, UniProt P0A0K8+P20831). The series is described as follows: Inhibition of Staphylococcus aureus wild type DNA gyrase. In kind it is protein-complex assay.
Series [17] relates to Enterococcus faecium. The series is described as follows: Antibacterial activity against vancomycin-resistant Enterococcus faecium after 18 hrs by twofold microbroth dilution method. In kind it is functional.
The nature of series [18]: Inhibition of Staphylococcus aureus wild type DNA topoisomerase 4.
Series [19] concerns Staphylococcus aureus. The series is described as follows: Selectivity ratio of IC50 for Staphylococcus aureus DNA gyrase Ser84Leu mutant to IC50 for Staphylococcus aureus wild type DNA gyrase.
For series [20], the system named is Streptococcus pneumoniae. The series is described as follows: Antibacterial activity against penicillin-intermediate resistant Streptococcus pneumoniae after 18 hrs by twofold microbroth dilution method. In kind it is functional.
Series [21] deals with Enterococcus faecalis. The series is described as follows: Antibacterial activity against vancomycin-resistant Enterococcus faecalis after 18 hrs by twofold microbroth dilution method. In kind it is functional.
Series [22] can be described thus: Inhibition of Staphylococcus aureus DNA topoisomerase 4 Ser80Phe mutant.
The subject of series [23] is Staphylococcus aureus. The series is described as follows: Antibacterial activity against ciprofloxacin, methicillin-resistant Staphylococcus aureus after 18 hrs by twofold microbroth dilution method. The series is classed as functional.
Series [24] relates to Staphylococcus aureus. The series is described as follows: Selectivity ratio of IC50 for Staphylococcus aureus DNA topoisomerase 4 Ser80Phe mutant to IC50 for Staphylococcus aureus wild type DNA topoisomerase 4.
Series [25] concerns the target DNA gyrase subunit A (Staphylococcus aureus, UniProt P20831, S84L). The series is described as follows: Inhibition of Staphylococcus aureus DNA gyrase Ser84Leu mutant.

Turning to `COc1c(N2CC[C@@H]([C@H](C)N)C2)ccc2c(=O)c(C(=O)O)cn(C3CC3)c12`, the MIC in series [1] was no more than 0.003 µg/mL; in series [2], 0.006 µg/mL (≈ 0.0162 µM); in series [3] it was 0.2 µg/mL (≈ 0.538 µM); in series [4], 0.1 µg/mL (≈ 0.269 µM); in series [6], 0.05 µg/mL (≈ 0.135 µM); in [8] it was no more than 0.003 µg/mL. Further, the MIC in [9] worked out at 0.012 µg/mL (≈ 0.0323 µM); in series [10] it was 0.012 µg/mL (≈ 0.0323 µM); in series [15], 0.006 µg/mL (≈ 0.0162 µM). Besides, the Activity result in series [5] is given as “Toxic”; in series [7] it was “Toxic”; in series [13], “Toxic”; in series [14] it was “Non-toxic”. In [11], this compound returned a solubility greater than 10000 µg/mL. For the same compound, in series [12], the MIC50 was determined as 0.5 µg/mL (≈ 1.35 µM). The compound further registered an MIC80 in series [12] of 8 µg/mL (≈ 21.5 µM). The MIC90 in series [12] is 8 µg/mL (≈ 21.5 µM).
In the case of `C[C@H]1NCc2cc(-c3ccc4c(=O)c(C(=O)O)cn(C5CC5)c4c3OC(F)F)ccc21` [GARENOXACIN], the minimal inhibitory concentration (MIC) in series [1] was 0.025 µg/mL (≈ 0.0586 µM); in series [2] it was 0.05 µg/mL (≈ 0.117 µM); in [3], 0.78 µg/mL (≈ 1.83 µM); in series [4], 0.05 µg/mL (≈ 0.117 µM); in [6], 0.2 µg/mL (≈ 0.469 µM); in [8], 0.025 µg/mL (≈ 0.0586 µM). The minimum inhibitory concentration (MIC) in [9] worked out at 0.1 µg/mL (≈ 0.235 µM); in series [10] it was 0.012 µg/mL (≈ 0.0281 µM); in series [15], 0.05 µg/mL (≈ 0.117 µM). The half-inhibitory concentration (IC50) is 8.42 µM in series [16], 1.14 µg/mL (≈ 2.67 µM) in series [18], 20.7 µg/mL (≈ 48.5 µM) in series [22] and greater than 1200 µM in [25]. The MIC50 is 8 µg/mL (≈ 18.8 µM) in series [17]; 0.12 µg/mL (≈ 0.281 µM) in series [20]; 4 µg/mL (≈ 9.38 µM) in series [21]; 1 µg/mL (≈ 2.35 µM) in [23]; 2 µg/mL (≈ 4.69 µM) in [12]. Moreover, the MIC90 came to 32 µg/mL (≈ 75 µM) in [17]; 0.12 µg/mL (≈ 0.281 µM) in series [20]; 8 µg/mL (≈ 18.8 µM) in series [21]; 32 µg/mL (≈ 75 µM) in [23]; 64 µg/mL (≈ 150 µM) in series [12]. In addition, the Ratio IC50 is greater than 143 in [19] and 18.2 in [24]. The compound also yielded an MIC80 in series [12] of 64 µg/mL (≈ 150 µM).
For the compound `COc1c(N2CCNC(C)C2)c(F)cc2c(=O)c(C(=O)O)cn(C3CC3)c12` (stereo unspecified) [GATIFLOXACIN], the MIC in series [1] was found to be 0.2 µg/mL (≈ 0.533 µM); in series [2] it was 0.2 µg/mL (≈ 0.533 µM); in series [3], 0.78 µg/mL (≈ 2.08 µM); in series [4] it was 0.05 µg/mL (≈ 0.133 µM); in [6], 0.39 µg/mL (≈ 1.04 µM); in series [8], 0.05 µg/mL (≈ 0.133 µM). For the same compound, the MIC in series [9] is 0.39 µg/mL (≈ 1.04 µM); in series [10], 0.006 µg/mL (≈ 0.016 µM); in [15], 0.2 µg/mL (≈ 0.533 µM). The IC50 in [16] is 8.58 µM; in [18], 1.85 µg/mL (≈ 4.93 µM); in series [22], 22.5 µg/mL (≈ 59.9 µM); in [25], 765 µM. Also, the MIC50 in [17] is 4 µg/mL (≈ 10.7 µM); in series [20], 0.5 µg/mL (≈ 1.33 µM); in series [21] it was 16 µg/mL (≈ 42.6 µM); in series [23], 4 µg/mL (≈ 10.7 µM). Further, the MIC90 in series [17] amounted to 32 µg/mL (≈ 85.2 µM); in series [20], 0.5 µg/mL (≈ 1.33 µM); in series [21], 32 µg/mL (≈ 85.2 µM); in series [23], 64 µg/mL (≈ 170 µM). In addition, the Ratio IC50 was 89.1 in series [19] and 12.2 in series [24].
